{
  "source": "patent US9557319B2",
  "about": "“Cell-based arrays, methods of making, and methods of using” (University of Florida Research Foundation, Inc., priority 2010, dated 2017)",
  "key": {"[1]": {"test": "Drug release from microarrayed drug-loaded EVA islands", "type": "physicochemical", "conditions": "release from drug-loaded EVA microarray, followed by steady release", "protocol": "For drug release studies, polymer formulations were again made as described above. Glass coverslips were weighed prior to printing. Arrays consisting of 900 drug-loaded polymer islands were manufactured and allowed to dry overnight. Samples were weighed and placed in 3 ml of PBS containing 0.1% Tween-80 at 37° C. with gentle agitation. Samples were taken at the specified times and analyzed."}, "[2]": {"test": "Loading efficiency of small molecules in microarrayed EVA films", "type": "physicochemical", "protocol": "To embed molecules into the polymer matrix, they were first dissolved in an appropriate solvent, depending on their respective hydrophobicity. A stock solution of azide (99%, Acros), a hydrophilic molecule, was dissolved in dH2O whereas Nutlin-3a (EMD Chemicals, Gibbstown, N.J.) and camptothecin (Sigma), both hydrophobic molecules, were dissolved in DMSO. Dissolved drugs were then added to 5% EVA at a 1:10 ratio of solvent:EVA. Prior to printing, polymer mixtures were vortexed for 30 s and then homogenized for 1 min before being loaded onto the source plate of the robotic mini-arrayer.\nTo determine the loading efficiency of factors, polymer formulations were made as described above. Films derived from 100 μl EVA loaded with factors were then made on glass coverslips and allowed to dry overnight under vacuum. Films were removed from the glass substrates and weighed. Films were washed briefly with PBS before being placed in 1 ml toluene to dissolve the polymer. Samples were then analyzed using a Nanodrop-ND-1000 spectrophotometer. Standard curves were generated for each factor, and loading efficiency was calculated as the percent of drug embedded in the polymer compared to the theoretical drug concentration."}, "HCT116 cells [3]": {"system": "HCT116 cells", "test": "Proliferation of HCT116 cells incubated with soluble drugs in 96-well plates", "type": "cell-based, human", "conditions": "soluble drug, 24 h", "protocol": "FIGS. 12A-12D are a series of graphs illustrating apoptosis and proliferation dose-response curves from HCT116 cells incubated with soluble drugs. FIG. 12A illustrates the percent of apoptotic HCT116 cells incubated 24 h with soluble nutlin-3a. […] Significant differences were determined by ANOVA, {F(5,282)=19.694, p<0.05}, followed by Tukey's post-hoc analysis. FIG. 12C illustrates the percent of non-proliferating HCT116 cells incubated 24 h with soluble nutlin-3a. Significant differences were determined by ANOVA, {F(4,226)=12.643, p<0.05}, followed by Tukey's post-hoc analysis. […] Significant differences were determined by ANOVA, {F(5,252)=102.485, p<0.05}, followed by Tukey's post-hoc analysis. (*: p<0.05 compared to all other conditions, #:p<0.05 from all conditions marked *).\nResults were corroborated using soluble drugs in 96-well plates (FIGS. 12A-D)."}, "HCT116 cells [4]": {"system": "HCT116 cells", "test": "HCT116 proliferation (BrdU) on drug-eluting cellular microarray", "type": "cell-based, human", "conditions": "for drug sensitivity (1/D50) / Emax: non-proliferation, 24 h", "text": "Glass coverslips were cleaned in an oxygen plasma etcher (Terra Universal, Fullerton, Calif.). Arrays of isolated spots of (3-Aminopropyl) trimethoxysilane (NH2-terminated silane) (Sigma-Aldrich, St. Louis, Mo.) were robotically printed on clean coverslips using a Calligrapher Miniarrayer printer (Bio-Rad, Hercules, Calif.) with 1500 μm center to center distances and a pin diameter of 400 μm. The silane printed coverslips were then coated with 175 Å of titanium (Ti; 99.995% pure) and 225 Å of gold (Au; 99.999% pure) (Williams Advanced Materials, Buffalo, N.Y.). Following coating, gold-coated arrays were sonicated to remove gold from the amine spots, exposing NH2-terminated silane islands. The coverslips were incubated with 0.1 M, methyl-terminated alkanethiol (CH3(CH2)11SH) (Sigma) for 30 min. Substrates were incubated in 10% Pluronic® F-127 (BASF Corporation, USA) for 3 h and 1% heat-denatured BSA for 30 min to create a non-fouling surface around the adhesive amine islands. Three layers of the drug-loaded ethylene vinyl acetate (EVA) polymers were printed over the amine islands and placed in a desiccator between each successive layer. Poly-d-lysine (0.1%) was over-spotted onto the EVA films to promote cell attachment. […] Schematic diagrams of the arrays are illustrated in FIGS. 6A and 6B.\nHCT116 (p53+/+, ATCC, Manassas, Va.) human colon cancer cells were maintained in McCoy's 5a Medium supplemented with 10% fetal bovine serum (Thermo Scientific, Waltham, Mass.), 1% penicillin G and 1% streptomycin (Thermo Scientific). The cells were cultured at 37° C. in a humidified incubator containing 5% CO2. Following microarray fabrication, 100,000 HCT116 cells were seeded over each array in 3 ml serum-free media and allowed to incubate on a rocking plate at room temperature until cell attachment to the EVA islands occurred, with minimal attachment to background, typically 10-15 min. Microarrays were gently washed in PBS, placed in a 35 mm petri dish with complete media, and placed in an incubator for 24-72 h.\nCamptothecin-loaded microarrays were stained with Annexin V (BD Pharminigen), fixed in 4% paraformaldehyde, and placed in PBS with Hoechst dye 34580 (Invitrogen, USA) for 30 min. Azide-loaded microarrays were fixed with 4% paraformaldehyde and incubated with PBS containing Hoechst 34580 dye. Finally, nutlin-3a-loaded microarrays were fixed with 4% paraformaldehyde, stained with BrdU (BD Bioscience, San Jose, Calif.), and incubated in PBS containing Hoechst 34580 dye. All arrays were mounted with Fluoro-Gel (Electron Microscope Sciences, Hatfield, Pa.) and imaged using an Axiovert 200M microscope (Carl Zeiss, Oberkochen, Germany). Analysis was performed with Axiovision (Carl Zeiss, Oberkochen, Germany) by quantifying, in each drug-eluting island, the area of fluorescence and reported as relative fluorescence intensity (RFI).\nProliferation values were normalized to control (0 μM drug). Values for concentration-response curves were transformed to non-proliferation by subtracting the normalized value from 100%. Curve fitting analysis was performed to obtain Emax and D50 values using the equation E=E0+(Emax×D)/(D+D50) where E is the effect (either non-proliferation or apoptosis), E0 is the initial value, Emax is the maximum effect, D is the dose, and D50 is the dose at which a 50% maximum effect (Emax) is observed^34. Drug sensitivity values were obtained by taking the inverse of the D50 and multiplying by 100. Those values marked with “#” indicate that the r^2 value of the curve-fit was below 0.65. N/A values are present where negative parameters were obtained.\nHyperbolic curve fits were generated for the dose responses from a first drug in the presence of a fixed amount of a second drug for each combination (Tables 2 and 3, below). […]"}, "[5]": {"conditions": "Nutlin dose response, 2nd drug CPT 1 μM"}, "[6]": {"conditions": "Nutlin dose response, 2nd drug CPT 10 μM"}},
  "note": "Where two headings read alike, the source gives them in different places. Marks after values point to notes of the source that are not given here.",
  "data": [
    {"smiles": "CC[C@@]1(O)C(=O)OCc2c1cc1n(c2=O)Cc2cc3ccccc3nc2-1", "note": "[Camptothecin]", "values": [
      {"measurement": "burst release duration", "setting": "[1]", "result": "approximately 24 h"},
      {"measurement": "Loading efficiency (%)", "setting": "[2]", "result": "92 +/− 3%"},
      {"measurement": "effect on reducing proliferation of HCT116 cells", "setting": "HCT116 cells [3]", "result": "dose-dependent effect"},
      {"measurement": "increase in sensitivity to camptothecin in presence of nutlin-3a", "setting": "HCT116 cells [4]; 125 μM nutlin compared to 0 μM nutlin, HCT116 proliferation", "result": "over 16 fold"},
      {"measurement": "drug sensitivity (1/D50)", "setting": "HCT116 cells [4]; Camptothecin dose response, 2nd drug NUT 0 μM", "result": "4.83 +/− 0.54*"},
      {"measurement": "drug sensitivity (1/D50)", "setting": "HCT116 cells [4]; Camptothecin dose response, 2nd drug NUT 0 μM, listed as camptothecin", "result": 4.83},
      {"measurement": "drug sensitivity (1/D50)", "setting": "HCT116 cells [4]; Camptothecin dose response, 2nd drug NUT 1 μM", "result": "5.65 +/− 5.2"},
      {"measurement": "drug sensitivity (1/D50)", "setting": "HCT116 cells [4]; Camptothecin dose response, 2nd drug NUT 25 μM", "result": "12.1 +/− 18"},
      {"measurement": "drug sensitivity (1/D50)", "setting": "HCT116 cells [4]; Camptothecin dose response, 2nd drug NUT 125 μM", "result": "78.1 +/− 26*"},
      {"measurement": "drug sensitivity (1/D50)", "setting": "HCT116 cells [4]; Camptothecin dose response, 2nd drug NUT 125 μM, listed as camptothecin", "result": 78.1},
      {"measurement": "Emax", "setting": "HCT116 cells [4]; Homo sapiens, HCT-116, 24 h, Camptothecin dose response, 2nd drug NUT 0 μM, read-out: Emax", "result": 86.4, "unit": "%"},
      {"measurement": "Emax", "setting": "HCT116 cells [4]; Homo sapiens, HCT-116, 24 h, Camptothecin dose response, 2nd drug NUT 1 μM, read-out: Emax", "result": 88.8, "unit": "%"},
      {"measurement": "Emax", "setting": "HCT116 cells [4]; Homo sapiens, HCT-116, 24 h, Camptothecin dose response, 2nd drug NUT 25 μM, read-out: Emax", "result": 86.3, "unit": "%"},
      {"measurement": "Emax", "setting": "HCT116 cells [4]; Homo sapiens, HCT-116, 24 h, Camptothecin dose response, 2nd drug NUT 125 μM, read-out: Emax", "result": 79.1, "unit": "%"}
    ]},
    {"smiles": "COc1ccc(C2=N[C@@H](c3ccc(Cl)cc3)[C@@H](c3ccc(Cl)cc3)N2C(=O)N2CCNC(=O)C2)c(OC(C)C)c1", "note": "[Nutlin-3a]", "values": [
      {"measurement": "burst release duration", "setting": "[1]", "result": "approximately 8 h"},
      {"measurement": "Loading efficiency (%)", "setting": "[2]", "result": "81 +/− 7%"},
      {"measurement": "effect on reducing proliferation of HCT116 cells", "setting": "HCT116 cells [3]", "result": "dose-dependent effect"},
      {"measurement": "increase in sensitivity to nutlin-3a on addition of camptothecin", "setting": "HCT116 cells [4]; 50 μM CPT compared to 0 μM CPT, HCT116 proliferation", "result": "over 5 fold"},
      {"measurement": "cell cycle arrest (ratio of non-proliferating cells) on single-drug microarray", "setting": "HCT116 cells [4]; HCT116, 24 h", "result": "dose-dependent cell cycle arrest"},
      {"measurement": "Emax", "setting": "HCT116 cells [4]; Nutlin dose response, 2nd drug CPT 0 μM", "result": "108 +/− 110"},
      {"measurement": "drug sensitivity (1/D50)", "setting": "HCT116 cells [4]; Nutlin dose response, 2nd drug CPT 0 μM, listed as Nutlin", "result": "3.00 +/− 0.49*"},
      {"measurement": "drug sensitivity (1/D50)", "setting": "HCT116 cells [4]; Nutlin dose response, 2nd drug CPT 0 μM, listed as nutlin-3a", "result": 3.0},
      {"measurement": "Emax", "setting": "HCT116 cells [4]; [5]", "result": "96.1 +/− 25"},
      {"measurement": "drug sensitivity (1/D50)", "setting": "HCT116 cells [4]; [5]", "result": "1.78 +/− 1.7"},
      {"measurement": "Emax", "setting": "HCT116 cells [4]; [6]", "result": "86.5 +/− 19"},
      {"measurement": "drug sensitivity (1/D50)", "setting": "HCT116 cells [4]; [6]", "result": "2.97 +/− 3.7"},
      {"measurement": "Emax", "setting": "HCT116 cells [4]; Nutlin dose response, 2nd drug CPT 50 μM", "result": "81.4 +/− 1.9"},
      {"measurement": "drug sensitivity (1/D50)", "setting": "HCT116 cells [4]; Nutlin dose response, 2nd drug CPT 50 μM, listed as Nutlin", "result": "19.6 +/− 12"},
      {"measurement": "drug sensitivity (1/D50)", "setting": "HCT116 cells [4]; Nutlin dose response, 2nd drug CPT 50 μM, listed as nutlin-3a", "result": 19.6}
    ]}
  ]
}
